Results on 13 compounds are retold here after patent publication US20120095024A1, “TOLUIDINE SULFONAMIDES AND THEIR USE” (Elara Pharmaceuticals GmbH, priority 2008, published 2012).

For orientation: EC50 means the concentration giving half of the maximal effect. High values mean lower potency in that assay, low ones higher potency in that assay. For orientation: IC50 means the concentration that gives 50% inhibition. The term inhibition denotes the drop in the measured response relative to a control, in per cent. A low value points to a weak effect.

A value given as a limit tells only on which side of the number the result lay.

One test relates to MCF7 cells. As to the kind of experiment: Cell proliferation assay (ATPlite), MCF-7. The class given is cell-based, human. Conditions: Homo sapiens, inhibition of cell proliferation, 72 h. The essentials: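 Cells seeded (MCF-7 2000/well, HG-1 1000/well in RPMI with 2 ng/ml IL-6), then after 24 h exposed to compound at 0.5% DMSO final for 72 h. Proliferation read as ATP luminescence (ATPlite); EC50 calculated from the dose-response.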
On the technique in general: Cellular ATP, detected with luciferase, serves as a proxy for viable cell number.

For another test, the system named is HG1 cells. In words: Cell proliferation assay (ATPlite), HG-1. The class given is cell-based. The conditions noted are these: inhibition of cell proliferation, 72 h. The method, then: MCF-7 human breast adenocarcinoma cells and HL-60 acute promyelocytic leukaemia cells were obtained from ATCC (LGC Promochem). HG-1 multiple myeloma cells were obtained from Dr. D. Hose (DKFZ Heidelberg). The CellSensor® HRE-bla HCT116 cell line (colorectal carcinoma) was obtained from Invitrogen.
Cells were grown under humidified 95% air, 5% CO2 at 37° C. in Dulbecco's modified Eagle's medium (DMEM: MCF-7) or RPMI 1640 medium (RPMI: HL-60, HG-1) supplemented with 10% fetal bovine serum (FBS), 100 U/ml penicillin and 100 μg/ml streptomycin, 2 mM L-glutamine, and 2 ng/ml IL-6 (for the HG-1 cell line only). The HCT116 cell line was grown under the same atmospheric conditions in McCoy's 5A medium supplemented with 10% FBS and penicillin/streptomycin as above, in addition to blasticidin as a selection marker at a final concentration of 5 μg/ml.
Cell proliferation experiments were carried out in 96-well tissue culture plates with seeding of 2000 cells/well (MCF-7) or 1000 cells/well (HL-60, HG-1) in 100 μl of the relevant medium. Cells were subsequently incubated under the conditions mentioned for 24 h prior to addition of compounds.
For the determination of compound EC50 values, 10 μl compounds at 11× concentrations in 5.5% DMSO were added to the wells at various concentrations yielding a final constant percentage of 0.5% DMSO at the desired 1× compound concentration. As a positive control, cells were treated with 5.5% DMSO. The cells were then incubated for a further 72 h prior to the measurement.
To determine the degree of inhibition of cell proliferation, cells were treated with ATPlite solution according to the manufacturer's instructions (PerkinElmer, ATPlite 1-step Luminescence ATP Detection Assay System) and luciferase readout measured on an Envision HTS multilabel plate reader (PerkinElmer) in luminescence mode according to established protocols. Raw data were imported into an ActivityBase database (IDBS, ID Business Solutions) and EC50 values calculated using the IDBS program ActivityBase XE. Table 2A and 2B show the IC50 values obtained in the above-outlined cell proliferation assay for exemplary compounds of the invention.

For test [1], the system named is HIF mediated transcription. As to the kind of experiment: Inhibition of activation of HIF mediated transcription under hypoxic conditions (CellSensor HRE-bla HCT-116). The class given is cell-based. Conditions: Homo sapiens; HRE-bla HCT-116 cells, deferoxamine-induced hypoxia, 24 h. The method, then: Inhibition of an activated HIF signaling response under chemically-induced hypoxic conditions due to compound treatment was determined using the CellSensor® HRE-bla HCT-116 stably transfected reporter cell line from Invitrogen according to the manufacturer's instructions. HIF is a transcriptional factor composed of the constitutively expressed HIF1β subunit and one of three HIFα subunits (HIF1α, HIF2α, HIF3α). This assay is responsive towards HIFa activity in general. In one example, HIF-1, when stabilized by hypoxic conditions, upregulates several genes to promote cell survival in low-oxygen conditions. These include glycolysis enzymes, which allow ATP synthesis in an oxygen-independent manner, and vascular endothelial growth factor (VEGF), which promotes angiogenesis. HIF-1 acts by binding to HIF-responsive elements (HREs) in promoters that generally contain the sequence NCGTG.
Cells were maintained as described previously and seeded into 384-well, clear-bottom plates (Corning 3712) at 15000 cells/well in 32 μl assay medium (Opti-MEM [Invitrogen], 0.5% FBS, 100 U/ml penicillin, 100 μg/ml streptomycin, 0.1 mM non-essential amino acids [NEAA], 1 mM sodium pyruvate, 5 mM HEPES [pH 7.3]). Following a 2 h incubation period, compounds (4 μl) were subsequently added to the cells at 10× concentrations in 5% DMSO and incubated under normal conditions for 30 min. To induce hypoxic conditions, 4 μl of a 2 mM deferoxamine (DFO) solution was added to the cells followed by 24 h incubation under standard assay conditions (as described). Control wells included wells containing only medium (no cells) and wells treated with 0.5% DMSO instead of compound.
Prior to the readout, the Substrate Loading Solution was prepared as described in the manufacturer's protocol and 10 μl added to each well. Following a further 2 h incubation period at room temperature and in the dark, fluorescence was measured at two wavelengths (blue channel: ex. 409 nm, em. 460 nm; green channel: ex. 409 nm, em. 530 nm) on a PerkinElmer Envision HTS. For the analysis, the average signal of the cell-free wells at 460 nm and 530 nm was first subtracted from the blue and green channel data, respectively. The blue/green emission ratios were then calculated for each well, dividing the background-corrected blue emission values by the background-corrected green emission values. IC50 values were determined from these ratios using GraphPad Prism (Prism 5, GraphPad software, Inc.).

Test [2] has as its system estrogen receptor (ER)-mediated transcriptional activity. As to the kind of experiment: Inhibition of estrogen receptor (ER) signaling, ERE-tk-luc transfection assay in MCF-7 cells. The class given is cell-based. Conditions: Homo sapiens, MCF7, ERE-tk-luc luciferase readout, 24 h. The method, then:
To determine the effect of the compounds on estrogen receptor (ER)-mediated transcriptional activity a transfection assay using the MCF-7 cell line was performed. A luciferase-coupled ERE-tk-luc construct was obtained from Dr. G. Reid (EMBL).
In brief, MCF-7 cells were maintained as described previously and seeded on the first experimental day at a concentration of 3500 cells/well in 100 μl medium and incubated under standard conditions for 24 h. Following this initial incubation period, transfection was carried out using 5 ng of the ERE-tk-luc construct (per well) and Exgene 500 transfection reagent (Fermentas) in a final buffered solution containing 150 mM NaCl and 20 mM Tris pH 8.4. The plates were then maintained for 3-4 hours until cell culture conditions in the incubator before compounds were added at 11× concentrations to yield the final desired compound concentrations in 0.5% DMSO (in the same manner as for the proliferation assays described previously).
After an additional 24 h incubation period the degree of inhibition of ER-signaling was determined via a luciferase readout. Cells were treated with Britelite™ plus solution according to the manufacturer's instructions (PerkinElmer, britelite plus, Ultra-High Sensitivity Luminescence Reporter Gene Assay System) and luciferase levels measured on an Envision HTS multilabel plate reader (PerkinElmer) in luminescence mode according to established protocols. Raw data were imported into an ActivityBase database (IDBS, ID Business Solutions) and IC50 values calculated using the IDBS program ActivityBase XE.

The target in a further test is T1, tubulin (Sus scrofa, UniProt P02550+P02554).
T1 construct: prepared in-house from porcine brain using a standard procedure involving cycles of polymerization/de-polymerization; from tissue; host or cells: porcine brain
T1 sequence (P02550 whole entry): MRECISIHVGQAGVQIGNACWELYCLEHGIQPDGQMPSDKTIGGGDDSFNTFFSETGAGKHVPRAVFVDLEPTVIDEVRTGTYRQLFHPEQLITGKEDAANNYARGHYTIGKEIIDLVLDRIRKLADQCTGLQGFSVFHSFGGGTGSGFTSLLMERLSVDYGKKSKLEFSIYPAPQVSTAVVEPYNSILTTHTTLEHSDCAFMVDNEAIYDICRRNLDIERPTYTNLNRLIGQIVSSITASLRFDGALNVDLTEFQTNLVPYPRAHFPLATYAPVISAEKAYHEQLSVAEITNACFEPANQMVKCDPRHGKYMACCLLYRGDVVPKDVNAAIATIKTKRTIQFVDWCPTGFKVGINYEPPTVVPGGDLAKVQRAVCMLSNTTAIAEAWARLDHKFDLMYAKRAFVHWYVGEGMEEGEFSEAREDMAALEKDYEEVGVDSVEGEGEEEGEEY
T1 sequence (P02554 whole entry): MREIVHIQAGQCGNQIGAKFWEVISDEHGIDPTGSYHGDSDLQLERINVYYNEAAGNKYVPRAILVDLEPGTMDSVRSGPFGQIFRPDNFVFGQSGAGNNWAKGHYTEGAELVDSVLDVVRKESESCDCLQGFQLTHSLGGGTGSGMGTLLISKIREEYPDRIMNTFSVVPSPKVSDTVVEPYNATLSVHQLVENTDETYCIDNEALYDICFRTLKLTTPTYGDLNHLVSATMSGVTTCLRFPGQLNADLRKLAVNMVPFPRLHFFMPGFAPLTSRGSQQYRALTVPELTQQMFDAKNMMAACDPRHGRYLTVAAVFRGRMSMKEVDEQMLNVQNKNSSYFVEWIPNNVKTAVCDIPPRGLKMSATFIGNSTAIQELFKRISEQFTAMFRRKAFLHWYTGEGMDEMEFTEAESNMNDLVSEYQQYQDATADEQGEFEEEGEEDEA
In words: Inhibition of in vitro tubulin polymerization. The class given is biochemical, porcine. The conditions noted are these: final absorbance 340 nm at 90 min. The method, then: To assess the degree of inhibition of in vitro tubulin polymerization, a tubulin solution (prepared in-house from porcine brain using a standard procedure involving cycles of polymerization/de-polymerization, see Castoldi & Popov (2003) Protein Expr. Purif. 32(1): 83-88) was incubated with varying concentrations of compounds under polymerizing conditions and kinetic experiments performed to determine the amount of polymerization (as measured by changes in OD at 340 nm) taking place over a 90 min period.
Compound solutions were diluted in double-distilled water to yield final 10× solutions containing 5% DMSO. 5 μl solutions were then added to the wells on a 384-well clear-bottom plate (Corning #3711, Corning Inc.) in preparation for the addition of tubulin. The tubulin solution (19.6 mg/ml, in 80 mM K-PIPES [pH 6.8], 1 mM MgCl2, 1 mM EGTA) was re-suspended to a final concentration of 4 mg/ml with ice cold G-PEM buffer (80 mM PIPES [pH 6.8], 2 mM MgCl2, 0.5 mM EGTA, 10% glycerol, 1 mM GTP) and maintained on ice for at least 1 min. 50 μl was then added to the pre-dispensed compound solutions, the plate orbital shaken on a medium setting for 5 s, and the first measurement begun immediately.
Experiments were carried out on a Safire^2™ monochromator (Tecan) preset to a stable temperature of 37° C.; the degree of polymerization was determined by measuring the absorbance of the solutions at 340 nm every minute over the 90 min cycle. Reported inhibition values were based on the final absorbance at 90 min and calculated with reference to a vehicle control (0.5% DMSO) using the minimum and maximum signals obtained for this sample.

Turning to `Cc1ccc(S(=O)(=O)Nc2cc(-c3ccsc3)ccc2C)cc1` [Example 8, 4-Methyl-N-(2-methyl-5-thiophen-3-yl-phenyl)-benzenesulfonamide], the EC50 (in the test with MCF7 cells; with HG1 cells; in test [1]) was less than 500 nM in each case.

In the test on MCF7 cells, `Cc1ccc(S(=O)(=O)Nc2cc(-c3ccoc3)ccc2C)cc1` [Example 5, N-(5-Furan-3-yl-2-methyl-phenyl)-4-methyl-benzenesulfonamide] showed an EC50 of less than 500 nM. In test [2], this compound came in with an IC50 of less than 500 nM.

As to `Cc1ccc(S(=O)(=O)Nc2cc(-c3ccc(C)s3)ccc2C)cc1` [Example 11, 4-Methyl-N-[2-methyl-5-(5-methyl-thiophen-2-yl)-phenyl]-benzenesulfonamide], in the test on MCF7 cells, the EC50 was less than 500 nM. This compound showed an inhibition at 10 µM at tubulin of 20 to 50%.

`Cc1ccc(S(=O)(=O)Nc2cc(-c3ccc(C#N)c(C)c3)ccc2C)cc1` [Example 72, N-(4′-Cyano-4,3′-dimethyl-biphenyl-3-yl)-4-methyl-benzenesulfonamide] had an EC50 with MCF7 cells of less than 500 nM. Moreover, the IC50 in test [2] is less than 500 nM. The compound also registered an inhibition at 10 µM against tubulin of less than 20%.

Turning to `Cc1ccc(S(=O)(=O)Nc2cc(-c3cscc3C)ccc2C)cc1` [Example 23, 4-Methyl-N-[2-methyl-5-(4-methyl-thiophen-3-yl)-phenyl]-benzenesulfonamide], the 50% effective concentration (EC50) (in the test with MCF7 cells; in test [1]) was less than 500 nM throughout. The same compound came in with an inhibition at 10 µM against tubulin greater than 50%.

Regarding `Cc1ccc(S(=O)(=O)Nc2cc(-c3ccc(C#N)cn3)ccc2C)cc1` [Example 43, N-[5-(5-Cyano-pyridin-2-yl)-2-methyl-phenyl]-4-methyl-benzenesulfonamide], the EC50 (with MCF7 cells; in test [1]) was less than 500 nM each time. Also, the IC50 in test [2] is less than 500 nM.

On to `COc1ccc(S(=O)(=O)Nc2cc(-c3csc(C#N)c3)ccc2C)cc1` [Example 73, N-[5-(5-Cyano-thiophen-3-yl)-2-methyl-phenyl]-4-methoxy-benzenesulfonamide], for which the EC50 (in the test on MCF7 cells; in the test with HG1 cells; in test [1]) was less than 500 nM in each case.

`COc1ccc(S(=O)(=O)Nc2cc(-c3c(C)noc3C)ccc2C)cc1` [Example 16, N-[5-(3,5-Dimethyl-isoxazol-4-yl)-2-methyl-phenyl]-4-methoxy-benzenesulfonamide]: the half-maximal effective concentration (EC50) with MCF7 cells was less than 500 nM. At tubulin, this compound gave an inhibition at 10 µM of 20 to 50%.

For `Cc1ccc(S(=O)(=O)Nc2cc(-n3cccc3)ccc2C)cc1` [Example 15, 4-Methyl-N-(2-methyl-5-pyrrol-1-yl-phenyl)-benzenesulfonamide], the EC50 in the test with MCF7 cells and in the test on HG1 cells was less than 500 nM in each case. Besides, the IC50 in test [2] is less than 500 nM.

With `Cc1ccc(S(=O)(=O)Nc2cc(-n3cnnc3)ccc2C)cc1` [Example 22, 4-Methyl-N-(2-methyl-5-[1,2,4]triazol-4-yl-phenyl)-benzenesulfonamide], the half-maximal effective concentration (EC50) was 1000 to 10000 nM in the test with MCF7 cells and less than 500 nM in the test with HG1 cells.

Consider `Cc1ccc(S(=O)(=O)Nc2cc(-c3ccc(C)o3)ccc2C)cc1` [Example 3, 4-Methyl-N-[2-methyl-5-(5-methyl-furan-2-yl)-phenyl]-benzenesulfonamide], for which the EC50 (in the test on MCF7 cells; in test [1]) was less than 500 nM in each case. Besides, at tubulin, the inhibition at 10 µM was greater than 50%.

Turning to `Cc1ccc(S(=O)(=O)Nc2cc(-c3ccccn3)ccc2C)cc1` [Example 19, 4-Methyl-N-(2-methyl-5-pyridin-2-yl-phenyl)-benzenesulfonamide], the EC50 was 500 to 1000 nM in the test with MCF7 cells and less than 500 nM in the test with HG1 cells.

`COc1ccc(S(=O)(=O)Nc2cc(-c3ccc(C#N)cn3)ccc2C)cc1` [Example 49, N-[5-(5-Cyano-pyridin-2-yl)-2-methyl-phenyl]-4-methoxy-benzenesulfonamide] returned an EC50 with MCF7 cells of less than 500 nM. The compound further showed an IC50 in test [2] of less than 500 nM.
